Legend:
Experiment in all cases: relative viability (nuclei count vs DMSO), 5 days (fraction); higher = more cells survive
SK-LU-1 = system: SK-LU-1
In short: (§1)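 Lung cancer cell lines, seeded in 1536-well plates, were treated the following day by pin tool with a single drug or with five library-drug doses (not always all listed) in √10 steps on top of a fixed anchor-drug dose. Cells were fixed and nuclei stained in one step after 5 days, and nuclei were counted. Relative viability is the nuclei count for treated wells divided by that for vehicle wells, reported as medians of duplicate plates.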

CAL-12T = system: CAL-12T
In short: as §1

HOP-62 = system: HOP-62
In short: as §1

NCI-H1395 = system: NCI-H1395
In short: as §1

HCC-827 = system: HCC-827
In short: as §1

NCI-H1792 = system: NCI-H1792
In short: as §1

HCC-366 = system: HCC-366
In short: as §1

HARA = system: HARA
In short: as §1

EMC-BAC-2 = system: EMC-BAC-2
In short: as §1

NCI-H460 = system: NCI-H460
In short: as §1

NCI-H2228 = system: NCI-H2228
In short: as §1

SW 1573 = system: SW 1573
In short: as §1

NCI-H727 = system: NCI-H727
In short: as §1

NCI-H1755 = system: NCI-H1755
In short: as §1

NCI-H2009 = system: NCI-H2009
In short: as §1

LCLC-103H = system: LCLC-103H
In short: as §1

A-427 = system: A-427
In short: as §1

NCI-H522 = system: NCI-H522
In short: as §1

COR-L 105 = system: COR-L 105
In short: as §1

NCI-H1915 = system: NCI-H1915
In short: as §1

NCI-H23 = system: NCI-H23
In short: as §1

NCI-H1437 = system: NCI-H1437
In short: as §1

CCN(CC)CCCCNc1ncc2cc(-c3cc(OC)cc(OC)c3)c(NC(=O)NC(C)(C)C)nc2n1 + CC(=O)Nc1cccc(-n2c(=O)n(C3CC3)c(=O)c3c(Nc4ccc(I)cc4F)n(C)c(=O)c(C)c32)c1 [Trametinib] (partner 0.02 µM)
relative viability (SK-LU-1; first compound 0.01 µM): 0.491
relative viability (SK-LU-1; first compound 0.03162 µM): 0.444
relative viability (SK-LU-1; first compound 0.1 µM): 0.434
relative viability (SK-LU-1; first compound 0.3162 µM): 0.409
relative viability (SK-LU-1; first compound 1 µM): 0.333
relative viability (CAL-12T; first compound 0.01 µM): 0.3
relative viability (CAL-12T; first compound 0.03162 µM): 0.338
relative viability (CAL-12T; first compound 0.1 µM): 0.372
relative viability (CAL-12T; first compound 0.3162 µM): 0.261
relative viability (CAL-12T; first compound 1 µM): 0.333
relative viability (HOP-62; first compound 0.01 µM): 0.452
relative viability (HOP-62; first compound 0.03162 µM): 0.395
relative viability (HOP-62; first compound 0.1 µM): 0.398
relative viability (HOP-62; first compound 0.3162 µM): 0.37
relative viability (HOP-62; first compound 1 µM): 0.339
relative viability (NCI-H1395; first compound 0.01 µM): 1.05
relative viability (NCI-H1395; first compound 0.03162 µM): 0.918
relative viability (NCI-H1395; first compound 0.1 µM): 0.907
relative viability (NCI-H1395; first compound 0.3162 µM): 0.63
relative viability (NCI-H1395; first compound 1 µM): 0.568
relative viability (HCC-827; first compound 0.01 µM): 0.539
relative viability (HCC-827; first compound 0.03162 µM): 0.59
relative viability (HCC-827; first compound 0.1 µM): 0.585
relative viability (HCC-827; first compound 0.3162 µM): 0.587
relative viability (HCC-827; first compound 1 µM): 0.516
relative viability (NCI-H1792; first compound 0.01 µM): 0.432
relative viability (NCI-H1792; first compound 0.03162 µM): 0.42
relative viability (NCI-H1792; first compound 0.1 µM): 0.415
relative viability (NCI-H1792; first compound 0.3162 µM): 0.518
relative viability (NCI-H1792; first compound 1 µM): 0.232
relative viability (HCC-366; first compound 0.01 µM): 0.352
relative viability (HCC-366; first compound 0.03162 µM): 0.386
relative viability (HCC-366; first compound 0.1 µM): 0.437
relative viability (HCC-366; first compound 0.3162 µM): 0.358
relative viability (HCC-366; first compound 1 µM): 0.309
relative viability (HARA; first compound 0.01 µM): 0.589
relative viability (HARA; first compound 0.03162 µM): 0.632
relative viability (HARA; first compound 0.1 µM): 0.645
relative viability (HARA; first compound 0.3162 µM): 0.579
relative viability (HARA; first compound 1 µM): 0.466
relative viability (EMC-BAC-2; first compound 0.03162 µM): 0.986
relative viability (EMC-BAC-2; first compound 0.1 µM): 0.917
relative viability (EMC-BAC-2; first compound 0.3162 µM): 0.847
relative viability (EMC-BAC-2; first compound 1 µM): 0.83
relative viability (NCI-H460; first compound 0.01 µM): 0.127
relative viability (NCI-H460; first compound 0.03162 µM): 0.208
relative viability (NCI-H460; first compound 0.1 µM): 0.153
relative viability (NCI-H460; first compound 0.3162 µM): 0.124
relative viability (NCI-H460; first compound 1 µM): 0.062
relative viability (NCI-H2228; first compound 0.01 µM): 0.449
relative viability (NCI-H2228; first compound 0.03162 µM): 0.551
relative viability (NCI-H2228; first compound 0.1 µM): 0.311
relative viability (NCI-H2228; first compound 0.3162 µM): 0.543
relative viability (NCI-H2228; first compound 1 µM): 0.309
relative viability (SW 1573; first compound 0.01 µM): 0.455
relative viability (SW 1573; first compound 0.03162 µM): 0.539
relative viability (SW 1573; first compound 0.1 µM): 0.605
relative viability (SW 1573; first compound 0.3162 µM): 0.516
relative viability (SW 1573; first compound 1 µM): 0.433
relative viability (NCI-H727; first compound 0.01 µM): 0.387
relative viability (NCI-H727; first compound 0.03162 µM): 0.412
relative viability (NCI-H727; first compound 0.1 µM): 0.369
relative viability (NCI-H727; first compound 0.3162 µM): 0.362
relative viability (NCI-H727; first compound 1 µM): 0.362
relative viability (NCI-H1755; first compound 0.01 µM): 0.83
relative viability (NCI-H1755; first compound 0.03162 µM): 0.776
relative viability (NCI-H1755; first compound 0.1 µM): 0.759
relative viability (NCI-H1755; first compound 0.3162 µM): 0.827
relative viability (NCI-H1755; first compound 1 µM): 0.55
relative viability (NCI-H2009; first compound 0.01 µM): 0.264
relative viability (NCI-H2009; first compound 0.03162 µM): 0.244
relative viability (NCI-H2009; first compound 0.1 µM): 0.266
relative viability (NCI-H2009; first compound 0.3162 µM): 0.254
relative viability (NCI-H2009; first compound 1 µM): 0.192
relative viability (LCLC-103H; first compound 0.01 µM): 0.691
relative viability (LCLC-103H; first compound 0.03162 µM): 0.719
relative viability (LCLC-103H; first compound 0.1 µM): 0.75
relative viability (LCLC-103H; first compound 0.3162 µM): 0.68
relative viability (LCLC-103H; first compound 1 µM): 0.579
relative viability (A-427; first compound 0.01 µM): 0.784
relative viability (A-427; first compound 0.03162 µM): 0.68
relative viability (A-427; first compound 0.1 µM): 0.694
relative viability (A-427; first compound 0.3162 µM): 0.595
relative viability (A-427; first compound 1 µM): 0.466
relative viability (NCI-H522; first compound 0.01 µM): 0.799
relative viability (NCI-H522; first compound 0.03162 µM): 0.772
relative viability (NCI-H522; first compound 0.1 µM): 0.787
relative viability (NCI-H522; first compound 0.3162 µM): 0.664
relative viability (NCI-H522; first compound 1 µM): 0.883
relative viability (COR-L 105; first compound 0.01 µM): 0.417
relative viability (COR-L 105; first compound 0.03162 µM): 0.406
relative viability (COR-L 105; first compound 0.1 µM): 0.483
relative viability (COR-L 105; first compound 0.3162 µM): 0.45
relative viability (COR-L 105; first compound 1 µM): 0.451
relative viability (NCI-H1915; first compound 0.01 µM): 0.303
relative viability (NCI-H1915; first compound 0.03162 µM): 0.294
relative viability (NCI-H1915; first compound 0.1 µM): 0.33
relative viability (NCI-H1915; first compound 0.3162 µM): 0.249
relative viability (NCI-H1915; first compound 1 µM): 0.233
relative viability (NCI-H23; first compound 0.01 µM): 0.321
relative viability (NCI-H23; first compound 0.03162 µM): 0.341
relative viability (NCI-H23; first compound 0.1 µM): 0.432
relative viability (NCI-H23; first compound 0.3162 µM): 0.4
relative viability (NCI-H23; first compound 1 µM): 0.319
relative viability (NCI-H1437; first compound 0.01 µM): 0.564
relative viability (NCI-H1437; first compound 0.03162 µM): 0.529
relative viability (NCI-H1437; first compound 0.1 µM): 0.622
relative viability (NCI-H1437; first compound 0.3162 µM): 0.521
relative viability (NCI-H1437; first compound 1 µM): 0.495

Reference: the supplement of paper PMC10307832
